From the OligoGym collection
Oligonucleotides are given in HELM: sugar(base)linkage, 5' to 3'; d 2'-deoxyribose, r ribose, m 2'-O-methylribose, p phosphate. ss, as = sense and antisense strand

The substances below were run against Mmp7 (rat) (assay: reporter assay of Huesken 2005). Settings: siRNA.
Also: test concentration or dose not given here.

Substance	normalised inhibition (eCFP-eYFP dual reporter) [%]
RNA1{r(G)p.r(A)p.r(U)p.r(G)p.r(A)p.r(G)p.r(U)p.r(A)p.r(C)p.r(U)p.r(G)p.r(G)p.r(A)p.r(C)p.r(G)p.r(G)p.r(A)p.r(U)p.r(G)p.d(T)p.d(T)}|RNA2{r(C)p.r(A)p.r(U)p.r(C)p.r(C)p.r(G)p.r(U)p.r(C)p.r(C)p.r(A)p.r(G)p.r(U)p.r(A)p.r(C)p.r(U)p.r(C)p.r(A)p.r(U)p.r(C)p.d(C)p.d(T)}$$$RNA1{StrandType:ss}|RNA2{StrandType:as}$	87.4
RNA1{r(A)p.r(U)p.r(G)p.r(U)p.r(U)p.r(G)p.r(C)p.r(A)p.r(G)p.r(A)p.r(A)p.r(U)p.r(U)p.r(C)p.r(U)p.r(C)p.r(A)p.r(C)p.r(U)p.d(T)p.d(T)}|RNA2{r(A)p.r(G)p.r(U)p.r(G)p.r(A)p.r(G)p.r(A)p.r(A)p.r(U)p.r(U)p.r(C)p.r(U)p.r(G)p.r(C)p.r(A)p.r(A)p.r(C)p.r(A)p.r(U)p.d(C)p.d(T)}$$$RNA1{StrandType:ss}|RNA2{StrandType:as}$	80.2
RNA1{r(U)p.r(A)p.r(C)p.r(U)p.r(G)p.r(G)p.r(A)p.r(C)p.r(G)p.r(G)p.r(A)p.r(U)p.r(G)p.r(G)p.r(U)p.r(G)p.r(A)p.r(G)p.r(G)p.d(T)p.d(T)}|RNA2{r(C)p.r(C)p.r(U)p.r(C)p.r(A)p.r(C)p.r(C)p.r(A)p.r(U)p.r(C)p.r(C)p.r(G)p.r(U)p.r(C)p.r(C)p.r(A)p.r(G)p.r(U)p.r(A)p.d(C)p.d(T)}$$$RNA1{StrandType:ss}|RNA2{StrandType:as}$	32.6
RNA1{r(G)p.r(C)p.r(C)p.r(U)p.r(C)p.r(G)p.r(G)p.r(C)p.r(G)p.r(G)p.r(A)p.r(G)p.r(A)p.r(U)p.r(G)p.r(C)p.r(U)p.r(C)p.r(A)p.d(T)p.d(T)}|RNA2{r(U)p.r(G)p.r(A)p.r(G)p.r(C)p.r(A)p.r(U)p.r(C)p.r(U)p.r(C)p.r(C)p.r(G)p.r(C)p.r(C)p.r(G)p.r(A)p.r(G)p.r(G)p.r(C)p.d(C)p.d(T)}$$$RNA1{StrandType:ss}|RNA2{StrandType:as}$	90.2
RNA1{r(U)p.r(G)p.r(C)p.r(A)p.r(G)p.r(A)p.r(A)p.r(U)p.r(U)p.r(C)p.r(U)p.r(C)p.r(A)p.r(C)p.r(U)p.r(A)p.r(A)p.r(U)p.r(G)p.d(T)p.d(T)}|RNA2{r(C)p.r(A)p.r(U)p.r(U)p.r(A)p.r(G)p.r(U)p.r(G)p.r(A)p.r(G)p.r(A)p.r(A)p.r(U)p.r(U)p.r(C)p.r(U)p.r(G)p.r(C)p.r(A)p.d(A)p.d(C)}$$$RNA1{StrandType:ss}|RNA2{StrandType:as}$	72.9
RNA1{r(A)p.r(C)p.r(U)p.r(C)p.r(A)p.r(G)p.r(G)p.r(C)p.r(G)p.r(U)p.r(G)p.r(A)p.r(A)p.r(C)p.r(U)p.r(U)p.r(C)p.r(C)p.r(U)p.d(T)p.d(T)}|RNA2{r(A)p.r(G)p.r(G)p.r(A)p.r(A)p.r(G)p.r(U)p.r(U)p.r(C)p.r(A)p.r(C)p.r(G)p.r(C)p.r(C)p.r(U)p.r(G)p.r(A)p.r(G)p.r(U)p.d(C)p.d(C)}$$$RNA1{StrandType:ss}|RNA2{StrandType:as}$	73.1
RNA1{r(A)p.r(G)p.r(G)p.r(C)p.r(C)p.r(U)p.r(C)p.r(G)p.r(G)p.r(C)p.r(G)p.r(G)p.r(A)p.r(G)p.r(A)p.r(U)p.r(G)p.r(C)p.r(U)p.d(T)p.d(T)}|RNA2{r(A)p.r(G)p.r(C)p.r(A)p.r(U)p.r(C)p.r(U)p.r(C)p.r(C)p.r(G)p.r(C)p.r(C)p.r(G)p.r(A)p.r(G)p.r(G)p.r(C)p.r(C)p.r(U)p.d(G)p.d(G)}$$$RNA1{StrandType:ss}|RNA2{StrandType:as}$	68.5
RNA1{r(A)p.r(A)p.r(G)p.r(G)p.r(A)p.r(U)p.r(G)p.r(A)p.r(G)p.r(U)p.r(A)p.r(C)p.r(U)p.r(G)p.r(G)p.r(A)p.r(C)p.r(G)p.r(G)p.d(T)p.d(T)}|RNA2{r(C)p.r(C)p.r(G)p.r(U)p.r(C)p.r(C)p.r(A)p.r(G)p.r(U)p.r(A)p.r(C)p.r(U)p.r(C)p.r(A)p.r(U)p.r(C)p.r(C)p.r(U)p.r(U)p.d(G)p.d(T)}$$$RNA1{StrandType:ss}|RNA2{StrandType:as}$	75.8
RNA1{r(G)p.r(C)p.r(C)p.r(A)p.r(C)p.r(U)p.r(G)p.r(U)p.r(C)p.r(C)p.r(C)p.r(A)p.r(G)p.r(G)p.r(A)p.r(A)p.r(G)p.r(C)p.r(C)p.d(T)p.d(T)}|RNA2{r(G)p.r(G)p.r(C)p.r(U)p.r(U)p.r(C)p.r(C)p.r(U)p.r(G)p.r(G)p.r(G)p.r(A)p.r(C)p.r(A)p.r(G)p.r(U)p.r(G)p.r(G)p.r(C)p.d(A)p.d(G)}$$$RNA1{StrandType:ss}|RNA2{StrandType:as}$	66
RNA1{r(A)p.r(U)p.r(C)p.r(U)p.r(U)p.r(A)p.r(G)p.r(G)p.r(A)p.r(A)p.r(A)p.r(U)p.r(U)p.r(U)p.r(U)p.r(A)p.r(C)p.r(C)p.r(U)p.d(T)p.d(T)}|RNA2{r(A)p.r(G)p.r(G)p.r(U)p.r(A)p.r(A)p.r(A)p.r(A)p.r(U)p.r(U)p.r(U)p.r(C)p.r(C)p.r(U)p.r(A)p.r(A)p.r(G)p.r(A)p.r(U)p.d(A)p.d(A)}$$$RNA1{StrandType:ss}|RNA2{StrandType:as}$	79.6
RNA1{r(G)p.r(A)p.r(A)p.r(G)p.r(C)p.r(C)p.r(C)p.r(A)p.r(G)p.r(G)p.r(U)p.r(G)p.r(U)p.r(G)p.r(G)p.r(A)p.r(G)p.r(U)p.r(G)p.d(T)p.d(T)}|RNA2{r(C)p.r(A)p.r(C)p.r(U)p.r(C)p.r(C)p.r(A)p.r(C)p.r(A)p.r(C)p.r(C)p.r(U)p.r(G)p.r(G)p.r(G)p.r(C)p.r(U)p.r(U)p.r(C)p.d(T)p.d(G)}$$$RNA1{StrandType:ss}|RNA2{StrandType:as}$	94
RNA1{r(G)p.r(C)p.r(C)p.r(A)p.r(G)p.r(G)p.r(C)p.r(C)p.r(U)p.r(C)p.r(G)p.r(G)p.r(C)p.r(G)p.r(G)p.r(A)p.r(G)p.r(A)p.r(U)p.d(T)p.d(T)}|RNA2{r(A)p.r(U)p.r(C)p.r(U)p.r(C)p.r(C)p.r(G)p.r(C)p.r(C)p.r(G)p.r(A)p.r(G)p.r(G)p.r(C)p.r(C)p.r(U)p.r(G)p.r(G)p.r(C)p.d(C)p.d(C)}$$$RNA1{StrandType:ss}|RNA2{StrandType:as}$	36.1
RNA1{r(G)p.r(U)p.r(U)p.r(G)p.r(C)p.r(A)p.r(G)p.r(A)p.r(A)p.r(U)p.r(U)p.r(C)p.r(U)p.r(C)p.r(A)p.r(C)p.r(U)p.r(A)p.r(A)p.d(T)p.d(T)}|RNA2{r(U)p.r(U)p.r(A)p.r(G)p.r(U)p.r(G)p.r(A)p.r(G)p.r(A)p.r(A)p.r(U)p.r(U)p.r(C)p.r(U)p.r(G)p.r(C)p.r(A)p.r(A)p.r(C)p.d(A)p.d(T)}$$$RNA1{StrandType:ss}|RNA2{StrandType:as}$	122
RNA1{r(A)p.r(C)p.r(U)p.r(G)p.r(G)p.r(A)p.r(C)p.r(G)p.r(G)p.r(A)p.r(U)p.r(G)p.r(G)p.r(U)p.r(G)p.r(A)p.r(G)p.r(G)p.r(A)p.d(T)p.d(T)}|RNA2{r(U)p.r(C)p.r(C)p.r(U)p.r(C)p.r(A)p.r(C)p.r(C)p.r(A)p.r(U)p.r(C)p.r(C)p.r(G)p.r(U)p.r(C)p.r(C)p.r(A)p.r(G)p.r(U)p.d(A)p.d(C)}$$$RNA1{StrandType:ss}|RNA2{StrandType:as}$	46.5
RNA1{r(G)p.r(G)p.r(G)p.r(C)p.r(C)p.r(A)p.r(G)p.r(G)p.r(A)p.r(A)p.r(A)p.r(C)p.r(A)p.r(C)p.r(U)p.r(C)p.r(U)p.r(A)p.r(G)p.d(T)p.d(T)}|RNA2{r(C)p.r(U)p.r(A)p.r(G)p.r(A)p.r(G)p.r(U)p.r(G)p.r(U)p.r(U)p.r(U)p.r(C)p.r(C)p.r(U)p.r(G)p.r(G)p.r(C)p.r(C)p.r(C)p.d(A)p.d(T)}$$$RNA1{StrandType:ss}|RNA2{StrandType:as}$	83.5
RNA1{r(C)p.r(A)p.r(A)p.r(A)p.r(G)p.r(A)p.r(A)p.r(G)p.r(G)p.r(C)p.r(C)p.r(A)p.r(C)p.r(C)p.r(A)p.r(G)p.r(U)p.r(G)p.r(C)p.d(T)p.d(T)}|RNA2{r(G)p.r(C)p.r(A)p.r(C)p.r(U)p.r(G)p.r(G)p.r(U)p.r(G)p.r(G)p.r(C)p.r(C)p.r(U)p.r(U)p.r(C)p.r(U)p.r(U)p.r(U)p.r(G)p.d(T)p.d(T)}$$$RNA1{StrandType:ss}|RNA2{StrandType:as}$	38.2
RNA1{r(G)p.r(G)p.r(C)p.r(C)p.r(A)p.r(G)p.r(G)p.r(A)p.r(A)p.r(A)p.r(C)p.r(A)p.r(C)p.r(U)p.r(C)p.r(U)p.r(A)p.r(G)p.r(G)p.d(T)p.d(T)}|RNA2{r(C)p.r(C)p.r(U)p.r(A)p.r(G)p.r(A)p.r(G)p.r(U)p.r(G)p.r(U)p.r(U)p.r(U)p.r(C)p.r(C)p.r(U)p.r(G)p.r(G)p.r(C)p.r(C)p.d(C)p.d(A)}$$$RNA1{StrandType:ss}|RNA2{StrandType:as}$	54.5
RNA1{r(A)p.r(C)p.r(U)p.r(U)p.r(C)p.r(A)p.r(G)p.r(U)p.r(C)p.r(U)p.r(U)p.r(A)p.r(C)p.r(A)p.r(A)p.r(A)p.r(G)p.r(G)p.r(A)p.d(T)p.d(T)}|RNA2{r(U)p.r(C)p.r(C)p.r(U)p.r(U)p.r(U)p.r(G)p.r(U)p.r(A)p.r(A)p.r(G)p.r(A)p.r(C)p.r(U)p.r(G)p.r(A)p.r(A)p.r(G)p.r(U)p.d(C)p.d(T)}$$$RNA1{StrandType:ss}|RNA2{StrandType:as}$	112
RNA1{r(G)p.r(C)p.r(A)p.r(G)p.r(A)p.r(A)p.r(U)p.r(U)p.r(C)p.r(U)p.r(C)p.r(A)p.r(C)p.r(U)p.r(A)p.r(A)p.r(U)p.r(G)p.r(C)p.d(T)p.d(T)}|RNA2{r(G)p.r(C)p.r(A)p.r(U)p.r(U)p.r(A)p.r(G)p.r(U)p.r(G)p.r(A)p.r(G)p.r(A)p.r(A)p.r(U)p.r(U)p.r(C)p.r(U)p.r(G)p.r(C)p.d(A)p.d(A)}$$$RNA1{StrandType:ss}|RNA2{StrandType:as}$	94.3
RNA1{r(G)p.r(G)p.r(U)p.r(U)p.r(U)p.r(G)p.r(C)p.r(C)p.r(G)p.r(G)p.r(A)p.r(G)p.r(A)p.r(C)p.r(U)p.r(G)p.r(G)p.r(A)p.r(A)p.d(T)p.d(T)}|RNA2{r(U)p.r(U)p.r(C)p.r(C)p.r(A)p.r(G)p.r(U)p.r(C)p.r(U)p.r(C)p.r(C)p.r(G)p.r(G)p.r(C)p.r(A)p.r(A)p.r(A)p.r(C)p.r(C)p.d(G)p.d(A)}$$$RNA1{StrandType:ss}|RNA2{StrandType:as}$	103
